In US10011607B2, “Ethynyl derivatives” (Hoffmann-La Roche Inc., priority 2015, dated 2018):

Molecular target: human mGlu4 receptor (Homo sapiens (Human), UniProt Q14833)
Test: Ca2+ mobilization in vitro assay on recombinant human mGlu4 expressed in HEK293 cells (PAM)
Assay type: cell-based
Conditions: for Emax: HEK293, maximal response in % of maximal stimulatory effect of saturating L-AP4, read-out: Eff. (%); for EC50: HEK293 cells, human mGlu4, in presence of EC20 of L-AP4, read-out: EC50 (nM) mGlu4PAM
Summary of the method: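 HEK293 cells stably expressing human mGlu4 at low level, Fluo-4AM loaded; compound (11 half-log dilutions) pre-incubated 10–30 min at 37 °C, then L-AP4 added at EC20 (determined daily). Peak fluorescence minus basal, normalized to saturating L-AP4; EC50, Hill slope and % Emax from four-parameter fit.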

human mGlu4 receptor, sequence (Q14833 33-912): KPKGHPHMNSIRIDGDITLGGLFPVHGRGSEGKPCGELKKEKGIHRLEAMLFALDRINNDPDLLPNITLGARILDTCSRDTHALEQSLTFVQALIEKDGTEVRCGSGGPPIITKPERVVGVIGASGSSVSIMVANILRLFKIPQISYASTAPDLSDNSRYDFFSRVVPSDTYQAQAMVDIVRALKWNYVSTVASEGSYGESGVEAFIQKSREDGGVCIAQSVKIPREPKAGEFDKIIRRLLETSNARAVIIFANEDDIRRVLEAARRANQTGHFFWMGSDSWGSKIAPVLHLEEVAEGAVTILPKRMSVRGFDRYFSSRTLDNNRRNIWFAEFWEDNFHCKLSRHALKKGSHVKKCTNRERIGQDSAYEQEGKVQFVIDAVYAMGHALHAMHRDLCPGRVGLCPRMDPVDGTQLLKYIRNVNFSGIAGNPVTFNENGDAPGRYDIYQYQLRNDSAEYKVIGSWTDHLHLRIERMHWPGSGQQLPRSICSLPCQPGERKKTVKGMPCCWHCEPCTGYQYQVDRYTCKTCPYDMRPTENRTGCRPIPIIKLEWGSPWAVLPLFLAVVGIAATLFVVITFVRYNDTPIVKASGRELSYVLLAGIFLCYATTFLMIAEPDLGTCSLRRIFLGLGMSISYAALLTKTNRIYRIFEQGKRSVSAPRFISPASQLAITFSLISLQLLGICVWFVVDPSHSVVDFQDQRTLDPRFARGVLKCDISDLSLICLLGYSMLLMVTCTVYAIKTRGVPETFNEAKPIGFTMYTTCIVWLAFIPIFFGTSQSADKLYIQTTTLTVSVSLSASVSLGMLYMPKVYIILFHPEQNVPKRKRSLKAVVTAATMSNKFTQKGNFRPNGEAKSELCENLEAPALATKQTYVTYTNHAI

| Compound | Emax [%] | EC50 [nM] |
| --- | --- | --- |
| COc1ccc(N2CCN3C(=O)N(c4c(F)cc(C#Cc5ccccc5)cc4F)C(=O)C[C@@]3(C)C2=O)cn1 [Example 23, (9aS)-7-[2,6-difluoro-4-(2-phenylethynyl)phenyl]-2-(6-methoxy-3-pyridyl)-9a-methyl-4,9-dihydro-3H-pyrazino[1,2-c]pyrimidine-1,6,8-trione] | 114 | 61 |
| Cn1cc(N2CCN3C(=O)N(c4c(F)cc(C#Cc5ccccc5)cc4F)C(=O)C[C@@]3(C)C2=O)ccc1=O [Example 24, (9aS)-7-[2,6-difluoro-4-(2-phenylethynyl)phenyl]-9a-methyl-2-(1-methyl-6-oxo-3-pyridyl)-4,9-dihydro-3H-pyrazino[1,2-c]pyrimidine-1,6,8-trione] | 103 | 128 |
| C[C@@]12CC(=O)N(c3c(F)cc(C#Cc4ccccc4)cc3F)C(=O)N1CCN(c1ccncn1)C2=O [Example 27, (9aS)-7-[2,6-difluoro-4-(2-phenylethynyl)phenyl]-9a-methyl-2-pyrimidin-4-yl-4,9-dihydro-3H-pyrazino[1,2-c]pyrimidine-1,6,8-trione] | 136 | 39 |
| Cc1nccc(N2CCN3C(=O)N(c4c(F)cc(C#Cc5ccccc5)cc4F)C(=O)C[C@@]3(C)C2=O)n1 [Example 31, (9aS)-7-[2,6-difluoro-4-(2-phenylethynyl)phenyl]-9a-methyl-2-(2-methylpyrimidin-4-yl)-4,9-dihydro-3H-pyrazino[1,2-c]pyrimidine-1,6,8-trione] | 91 | 88 |
| C[C@@]12CC(=O)N(c3c(F)cc(C#Cc4ccccc4)cc3F)C(=O)N1CCN(c1cnccn1)C2=O [Example 33, (9aS)-7-[2,6-difluoro-4-(2-phenylethynyl)phenyl]-9a-methyl-2-pyrazin-2-yl-4,9-dihydro-3H-pyrazino[1,2-c]pyrimidine-1,6,8-trione] | 107 | 46 |
| Cc1cc(N2CCN3C(=O)N(c4c(F)cc(C#Cc5ccccc5)cc4F)C(=O)C[C@@]3(C)C2=O)ncn1 [Example 35, (9aS)-7-[2,6-difluoro-4-(2-phenylethynyl)phenyl]-9a-methyl-2-(6-methylpyrimidin-4-yl)-4,9-dihydro-3H-pyrazino[1,2-c]pyrimidine-1,6,8-trione] | 121 | 91 |
| Cc1cncnc1N1CCN2C(=O)N(c3c(F)cc(C#Cc4ccccc4)cc3F)C(=O)C[C@@]2(C)C1=O [Example 36, (9aS)-7-[2,6-difluoro-4-(2-phenylethynyl)phenyl]-9a-methyl-2-(5-methylpyrimidin-4-yl)-4,9-dihydro-3H-pyrazino[1,2-c]pyrimidine-1,6,8-trione] | 132 | 86 |
| COc1ncc(N2CCN3C(=O)N(c4c(F)cc(C#Cc5ccccc5)cc4F)C(=O)C[C@@]3(C)C2=O)cn1 [Example 37, (9aS)-7-[2,6-difluoro-4-(2-phenylethynyl)phenyl]-2-(2-methoxypyrimidin-5-yl)-9a-methyl-4,9-dihydro-3H-pyrazino[1,2-c]pyrimidine-1,6,8-trione] | 90 | 55 |
| CC(C)(C)Oc1ncc(N2CCN3C(=O)N(c4c(F)cc(C#Cc5ccccc5)cc4F)C(=O)C[C@@]3(C)C2=O)cn1 [Example 38, (9aS)-2-(2-tert-butoxypyrimidin-5-yl)-7-[2,6-difluoro-4-(2-phenylethynyl)phenyl]-9a-methyl-4,9-dihydro-3H-pyrazino[1,2-c]pyrimidine-1,6,8-trione] | 107 |  |
| CCOc1ncc(N2CCN3C(=O)N(c4c(F)cc(C#Cc5ccccc5)cc4F)C(=O)C[C@@]3(C)C2=O)cn1 [Example 39, (9aS or 9aR)-7-[2,6-difluoro-4-(2-phenylethynyl)phenyl]-2-(2-ethoxypyrimidin-5-yl)-9a-methyl-4,9-dihydro-3H-pyrazino[1,2-c]pyrimidine-1,6,8-trione] | 103 | 96 |
| CC(C)Oc1ncc(N2CCN3C(=O)N(c4c(F)cc(C#Cc5ccccc5)cc4F)C(=O)C[C@@]3(C)C2=O)cn1 [Example 40, (9aS)-7-[2,6-difluoro-4-(2-phenylethynyl)phenyl]-2-(2-isopropoxypyrimidin-5-yl)-9a-methyl-4,9-dihydro-3H-pyrazino[1,2-c]pyrimidine-1,6,8-trione] | 103 | 113 |
| C[C@@]12CC(=O)N(c3c(F)cc(C#Cc4ccccc4)cc3F)C(=O)N1CCN(c1cnc(OCc3ccccc3)nc1)C2=O [Example 41, (9aS)-2-(2-benzyloxypyrimidin-5-yl)-7-[2,6-difluoro-4-(2-phenylethynyl)phenyl]-9a-methyl-4,9-dihydro-3H-pyrazino[1,2-c]pyrimidine-1,6,8-trione] | 99 | 81 |
| C[C@@]12CC(=O)N(c3c(F)cc(C#Cc4ccccc4)cc3F)C(=O)N1CCN(c1cnc(O)nc1)C2=O [Example 42, (9aS)-7-[2,6-difluoro-4-(2-phenylethynyl)phenyl]-2-(2-hydroxypyrimidin-5-yl)-9a-methyl-4,9-dihydro-3H-pyrazino[1,2-c]pyrimidine-1,6,8-trione] | 129 | 73 |
| C[C@@]12CC(=O)N(c3c(F)cc(C#Cc4ccccc4)cc3F)C(=O)N1CCN(c1cnc(OC3CC3)nc1)C2=O [Example 43, (9aS)-2-[2-(cyclopropoxy)pyrimidin-5-yl]-7-[2,6-difluoro-4-(2-phenylethynyl)phenyl]-9a-methyl-4,9-dihydro-3H-pyrazino[1,2-c]pyrimidine-1,6,8-trione] | 153 | 171 |
| COc1cnc(N2CCN3C(=O)N(c4c(F)cc(C#Cc5ccccc5)cc4F)C(=O)C[C@@]3(C)C2=O)cn1 [Example 44, (9aS)-7-[2,6-difluoro-4-(2-phenylethynyl)phenyl]-2-(5-methoxypyrazin-2-yl)-9a-methyl-4,9-dihydro-3H-pyrazino[1,2-c]pyrimidine-1,6,8-trione] | 107 | 123 |
| C[C@@]12CC(=O)N(c3c(F)cc(C#Cc4ccccc4)cc3F)C(=O)N1CCN(c1cnc(OCc3ccccc3)cn1)C2=O [Example 45, (9aS)-2-(5-benzyloxypyrazin-2-yl)-7-[2,6-difluoro-4-(2-phenylethynyl)phenyl]-9a-methyl-4,9-dihydro-3H-pyrazino[1,2-c]pyrimidine-1,6,8-trione] | 122 | 190 |
| C[C@@]12CC(=O)N(c3c(F)cc(C#Cc4ccccc4)cc3F)C(=O)N1CCN(c1cccnn1)C2=O [Example 47, (9aS)-7-[2,6-difluoro-4-(2-phenylethynyl)phenyl]-9a-methyl-2-pyridazin-3-yl-4,9-dihydro-3H-pyrazino[1,2-c]pyrimidine-1,6,8-trione] | 98 | 55 |
| Cn1nc(N2CCN3C(=O)N(c4c(F)cc(C#Cc5ccccc5)cc4F)C(=O)C[C@@]3(C)C2=O)ccc1=O [Example 49, (9aS)-7-[2,6-difluoro-4-(2-phenylethynyl)phenyl]-9a-methyl-2-(1-methyl-6-oxo-pyridazin-3-yl)-4,9-dihydro-3H-pyrazino[1,2-c]pyrimidine-1,6,8-trione] | 109 | 197 |
| C[C@@]12CC(=O)N(c3c(F)cc(C#Cc4ccccc4)cc3F)C(=O)N1CCN(c1ccnnc1)C2=O [Example 50, (9aS)-7-[2,6-difluoro-4-(2-phenylethynyl)phenyl]-9a-methyl-2-pyridazin-4-yl-4,9-dihydro-3H-pyrazino[1,2-c]pyrimidine-1,6,8-trione] | 133 | 74 |
